According to patent US10464926B2, “Heterobicyclic compounds and their use for the treatment of tuberculosis” (OTSUKA PHARMACEUTICAL CO., LTD., priority 2014, dated 2019):

Row | melting point [°C] | Compound
1 | 186.5 to 186.7 | O=C1CCc2c(OCC3(O)CCN(c4ccc(OCCF)cc4F)CC3)ccc(F)c2N1
2 | 171 to 172 | CCOC(=O)O[C@@H]1CN(c2ccc(Cl)cc2F)CC[C@@]1(O)COc1ccc(F)c2c1CCC(=O)N2
3 | 190 to 192 | O=C1CCc2c(OC[C@]3(O)CCN(c4ccc(Br)cc4F)C[C@H]3O)ccc(Cl)c2N1 (relative stereo) [Example 269]
4 | 182.4 to 182.5 | O=C1CCc2c(OC[C@]3(O)CCN(c4ccc(F)cc4)C[C@H]3O)ccc(F)c2N1 (relative stereo) [Example 336]
5 | 225.5 to 225.6 | O=C1CCc2c(OCC3(O)CCN(c4c(F)cc(Cl)cc4F)CC3)ccc(F)c2N1
6 | 214 to 216 | O=C1CCc2c(OC[C@]3(O)CCN(c4ccc(Br)cc4F)C[C@H]3O)cc(F)c(F)c2N1 (relative stereo)
7 | 196.5 to 196.6 | CCCc1cc(N2CCC(O)(COc3ccc(F)c4c3CCC(=O)N4)CC2)c(F)cc1Cl
8 | 200 to 200.3 | O=C1CCc2c(OCC3(O)CCN(c4ccc(F)cc4F)CC3)ccc(Cl)c2N1
9 | 183 to 184 | O=C1CCc2c(OC[C@]3(O)CCN(c4ccc(Br)cc4F)C[C@H]3O)ccc(Cl)c2N1 [Example 271]
10 | 138 to 147 | Cn1c(N2CC[C@@](O)(COc3ccc(F)c4c3CCC(=O)N4)[C@H](O)C2)nc2ccccc21
11 | 192.2 to 193.2 | O=C1CCc2c(OC[C@]3(O)CCN(c4ccc(F)cc4Cl)C[C@H]3O)cc(F)c(F)c2N1
12 | 216.1 to 216.3 | Cc1cc(N2CCC(O)(COc3ccc(F)c4c3CCC(=O)N4)CC2)ccc1Cl
13 | 186.7 to 186.8 | CCc1cc(N2CCC(O)(COc3ccc(F)c4c3CCC(=O)N4)CC2)c(F)cc1F
14 | 201.7 to 201.9 | O=C1CCc2c(OCC3(O)CCN(c4ccc(F)cc4F)CC3)ccc(F)c2N1
15 | 202.8 to 203.5 | O=C1CCc2c(OC[C@]3(O)CCN(c4ccccc4)C[C@H]3O)ccc(F)c2N1
16 | 185.1 to 185.2 | O=C1CCc2c(OCC3(O)CCN(c4cc(F)c(Cl)cc4F)CC3)ccc(F)c2N1
17 | 128.1 | CCOc1cccc(N2CCC(O)(COc3ccc(F)c4c3CCC(=O)N4)CC2)c1
18 | 231.6 to 232.9 | O=C1CCc2c(cccc2OCC2(O)CCN(c3ccc(Cl)cc3F)CC2)N1
19 | 154.2 to 154.5 | CCOCc1ccc(N2CCC(O)(COc3ccc(F)c4c3CCC(=O)N4)CC2)c(F)c1
20 | 204.8 to 205.4 | O=C1CCc2c(OCC3(O)CCN(c4cc([N+](=O)[O-])ccc4Cl)CC3)ccc(F)c2N1
21 | 191 to 193 | O=C1CCc2c(OC[C@]3(O)CCN(c4c(F)cc(Br)cc4F)C[C@H]3O)ccc(F)c2N1 (relative stereo) [Example 301]
22 | 195.5 to 195.6 | O=C1CCc2c(OC[C@]3(O)CCN(c4ccc(Cl)cc4F)C[C@H]3O)ccc(Cl)c2N1 (relative stereo) [Example 334]
23 | 201.6 to 202 | O=C1CCc2c(OCC3(O)CCN(c4ccc(OC(F)F)cc4F)CC3)ccc(F)c2N1
24 | 191 to 192 | O=C1CCc2c(OC[C@]3(O)CCN(c4c(F)cc(F)cc4F)C[C@H]3O)ccc(F)c2N1 [Example 306]
25 | 208.6 to 208.8 | Cc1cc(N2CCC(O)(COc3ccc(F)c4c3CCC(=O)N4)CC2)c(F)cc1Cl
26 | 184 to 185 | O=C1CCc2c(OC[C@@]3(O)CCN(c4cc(F)c(Cl)cc4F)C[C@H]3O)ccc(F)c2N1 (relative stereo)

Continued, compound first:

Row | Compound | melting point [°C]
27 | O=C1CCc2c(OCC3(O)CCN(c4ccc(OC(F)(F)F)cc4F)CC3)ccc(Cl)c2N1 | 149.7 to 149.9
28 | CCOc1c(F)c(F)c(N2CCC(O)(COc3ccc(Cl)c4c3CCC(=O)N4)CC2)c(F)c1F | 174.4 to 174.5
29 | O=C1CCc2c(OCC3CCN(c4ncc(Cl)cc4Cl)CC3)ccc(Cl)c2N1 | 190 to 191
30 | C[C@]1(O)CN(c2ncc(Cl)cc2Cl)CC[C@]1(O)COc1ccc(F)c2c1CCC(=O)N2 (relative stereo) | 182.6 to 187.5
31 | O=C1CCc2c(OCC3(O)CCN(c4cc(OC(F)(F)F)c(Cl)cc4F)CC3)ccc(F)c2N1 | 208
32 | CN(C)CCOc1cc(N2CCC(O)(COc3ccc(F)c4c3CCC(=O)N4)CC2)c(F)cc1Cl | 162.9 to 164.1
33 | O=C1CCc2c(OCC3(O)CCN(c4ccc(OCc5ccccc5)cc4F)CC3)ccc(F)c2N1 | 193
34 | COc1cc(F)c(N2CCC(O)(COc3ccc(Cl)c4c3CCC(=O)N4)CC2)c(F)c1 | 171.1 to 171.3
35 | O=C1CCc2c(OCC3(O)CCN(c4c(Cl)cccc4Cl)CC3)ccc(F)c2N1 | 203.6 to 203.8
36 | O=C1CCc2c(OC[C@]3(O)CCN(c4c(F)cc(Br)cc4F)C[C@H]3O)ccc(Cl)c2N1 (relative stereo) [Example 339] | 195 to 198
37 | O=C1CCc2c(OC[C@]3(O)CCN(c4c(F)cc(OCC(F)(F)F)cc4F)C[C@H]3O)ccc(F)c2N1 [Example 311] | 187
38 | O=C1CCc2c(OCC3(O)CCN(c4cc(OCc5ccc(Cl)cc5)c(Cl)cc4F)CC3)ccc(F)c2N1 | 205.1 to 205.7
39 | O=C1CCc2c(OCC3(O)CCN(c4cccnc4)CC3)ccc(F)c2N1 | 178.2 to 178.8
40 | O=C1CCc2c(OC[C@]3(O)CCN(c4cc(F)c(Cl)cc4Cl)C[C@H]3O)ccc(Cl)c2N1 | 180.2 to 180.6
41 | O=C1CCc2c(OCC3(O)CCN(c4c(F)cc(OC(F)F)cc4F)CC3)ccc(F)c2N1 | 172.6 to 172.7
42 | CCOc1cc(N2CCC(O)(COc3ccc(Cl)c4c3CCC(=O)N4)CC2)c(F)cc1F | 182.1 to 182.4

Row | Compound | melting point [°C]
43 | O=C1CCc2cc(OCC3(O)CCN(c4ccc(Cl)cc4F)CC3)ccc2N1 | 219.1 to 220
44 | CC(C)c1ccccc1N1CCC(O)(COc2ccc(F)c3c2CCC(=O)N3)CC1 | 163 to 163.3
45 | O=C1CCc2c(OCC3(O)CCN(c4ccc5sccc5c4)CC3)ccc(F)c2N1 | 209.5 to 210.2
46 | O=C1CCc2c(OCC3(O)CCN(c4cc(Cl)c(F)cc4Cl)CC3)ccc(F)c2N1 | 207.9
47 | O=C1CCc2c(OCC3(O)CCN(c4ccc5c(c4)OC(F)(F)O5)CC3)ccc(F)c2N1 | 198.4 to 198.5
48 | O=C1CCc2c(OCC3(O)CCN(c4ccc(OCC(F)(F)F)cc4F)CC3)ccc(Cl)c2N1 | 148.6 to 148.7
49 | N#Cc1cccc(N2CCC(O)(COc3ccc(F)c4c3CCC(=O)N4)CC2)c1 | 175 to 177
50 | O=C1CCc2c(OCC3(O)CCN(c4ncc(Br)cc4F)CC3)ccc(Cl)c2N1 | 231.2 to 233.5
51 | O=C1CCc2c(OCC3(O)CCN(c4ccccc4OC(F)(F)F)CC3)ccc(F)c2N1 | 168
52 | O=C1CCc2c(OCC3(O)CCN(c4ccc5ccccc5n4)CC3)ccc(F)c2N1 | 198 to 199
53 | O=C1CCc2c(OCC3(O)CCN(c4ccc5sccc5c4)CC3)ccc(Cl)c2N1 | 193.8 to 194.5
54 | NOC1(COc2ccc(F)c3c2CCC(=O)N3)CCN(c2ncc(Cl)cc2Cl)CC1 | 147 to 149
55 | CCCc1cc(N2CCC(O)(COc3ccc(Cl)c4c3CCC(=O)N4)CC2)c(F)cc1F | 156.9 to 157
56 | O=C1CCc2c(OCC3(O)CCN(c4c(F)cc(Br)cc4F)CC3)ccc(F)c2N1 | 217.7 to 217.9
57 | O=C1CCc2c(OCC3(O)CCN(c4ccc(Oc5ccccc5)cc4)CC3)ccc(F)c2N1 | 186.9 to 187.2
